Results taken from the NIST ThermoML archive (doi:10.1016/j.fluid.2008.09.004).

Columns and labels:
[1] = xn = mol fraction of the nth substance listed; settings: 101 kPa, Liquid, Vibrating tube method
[2] = molar heat capacity at constant pressure; xn = mol fraction of the nth substance listed; settings: 293.15 K, 101 kPa, Liquid, Small sample (50 mg) DSC

CCn1cc[n+](C)c1.O=S(=O)([O-])C(F)(F)F [1-ethyl-3-methylimidazolium trifluoromethanesulfonate] + CCO
mass density [kg/m3], [1]
Settings	x1 = 0.0523	x1 = 0.1	x1 = 0.1959	x1 = 0.2927	x1 = 0.3819	x1 = 0.4917	x1 = 0.5983	x1 = 0.6899	x1 = 0.7829	x1 = 0.8784
293.15 K	883.9	953	1059.7	1138.5	1194.5	1248.4	1289.4	1318.8	1343.7	1365.6
298.15 K	879.6	948.7	1055.4	1134.1	1190.2	1244.1	1285.1	1314.5	1339.4	1361.4
303.15 K	875.3	944.4	1051.1	1129.8	1185.9	1239.9	1280.9	1310.3	1335.2	1357.2
308.15 K	871	940.2	1046.8	1125.6	1181.6	1235.6	1276.7	1306.1	1331	1353
313.15 K	866.7	935.8	1042.5	1121.3	1177.3	1231.4	1272.4	1301.9	1326.8	1348.8
318.15 K	862.2	931.4	1038.1	1116.9	1173	1227.1	1268.2	1297.7	1322.6	1344.7

[2]
Settings	molar heat capacity at constant pressure [J/K/mol]
x1 = 0.0523	125.1
x1 = 0.1	138.9
x1 = 0.1959	164.1
